Measurements from patent publication US20140309244A1, “NOVEL MICROBIOCIDES” (SYNGENTA PARTICIPATIONS AG, priority 2010, published 2014).

Columns and labels:
[1] = system: Phaeosphaeria nodorum (Septoria nodorum); assay: Phaeosphaeria nodorum (Septoria nodorum) / wheat / leaf disc preventative (glume blotch); assay type: in vivo; conditions: Parastagonospora nodorum, foliar, wheat cv Kanzler leaf segments, inoculated 2 days after application, assessed 5-7 days after application, read-out: control of Phaeosphaeria nodorum (percent disease control compared to untreated)
[2] = system: Botryotinia fuckeliana (Botrytis cinerea); assay: Botryotinia fuckeliana (Botrytis cinerea) / liquid culture (gray mould); assay type: cell-based; conditions: Vogels broth, 96-well plate, 24° C., 3-4 days after application, read-out: control of Botryotinia fuckeliana (inhibition of growth, photometric)
[3] = system: Glomerella lagenarium (Colletotrichum lagenarium); assay: Glomerella lagenarium (Colletotrichum lagenarium) / liquid culture (anthracnose); assay type: cell-based; conditions: Colletotrichum orbiculare, PDB potato dextrose broth, 96-well plate, 24° C., 3-4 days after application, read-out: control of Glomerella lagenarium (inhibition of growth, photometric)
[4] = system: Mycosphaerella arachidis (Cercospora arachidicola); assay: Mycosphaerella arachidis (Cercospora arachidicola) / liquid culture (early leaf spot); assay type: cell-based; conditions: PDB potato dextrose broth, 96-well plate, 24° C., 4-5 days after application, read-out: control of Mycosphaerella arachidis (inhibition of growth, photometric)
[5] = system: Mycosphaerella graminicola (Septoria tritici); assay: Mycosphaerella graminicola (Septoria tritici) / liquid culture (Septoria blotch); assay type: cell-based; conditions: Zymoseptoria tritici, PDB potato dextrose broth, 96-well plate, 24° C., 4-5 days after application, read-out: control of Mycosphaerella graminicola (inhibition of growth, photometric)
[6] = system: Gaeumannomyces graminis; assay: Gaeumannomyces graminis / liquid culture (take-all of cereals); assay type: cell-based; conditions: liquid culture of mycelial fragments, PDB potato dextrose broth, 96-well plate, 24° C., 4-5 days after application, read-out: control of Gaeumannomyces graminis (inhibition of growth, photometric)
[7] = system: Thanatephorus cucumeris (Rhizoctonia solani); assay: Thanatephorus cucumeris (Rhizoctonia solani) / liquid culture (foot rot, damping-off); assay type: cell-based; conditions: liquid culture of mycelia fragments, PDB potato dextrose broth, 96-well plate, 24° C., 3-4 days after application, read-out: control of Thanatephorus cucumeris (inhibition of growth, photometric)
Protocol: Thanatephorus cucumeris (Rhizoctonia solani)/Liquid Culture (Foot Rot, Damping-Off): Mycelia fragments of a newly grown liquid culture of the fungus are directly mixed into nutrient broth (PDB potato dextrose broth). After placing a DMSO solution of the test compounds into a 96-well microtiter plate at an application rate of 200 ppm, the nutrient broth containing the fungal material was added. The test plates were incubated at 24° C. and the inhibition of growth was determined photometrically 3-4 days after application.

[8] = system: Monographella nivalis (Microdochium nivale); assay: Monographella nivalis (Microdochium nivale) / liquid culture (foot rot cereals); assay type: cell-based; conditions: PDB potato dextrose broth, 96-well plate, 24° C., 4-5 days after application, read-out: control of Monographella nivalis (inhibition of growth, photometric)
Protocol: Monographella nivalis (Microdochium nivale)/Liquid Culture (Foot Rot Cereals): Conidia of the fungus from cryogenic storage were directly mixed into nutrient broth (PDB potato dextrose broth). After placing a DMSO solution of test compound into a 96-well microtiter plate at an application rate of 200 ppm, the nutrient broth containing the fungal spores was added. The test plates were incubated at 24° C. and the inhibition of growth was determined photometrically 4-5 days after application. […].103

[9] = system: Puccinia recondita f. sp. tritici; assay: Puccinia recondita f. sp. tritici / wheat / leaf disc preventative (brown rust); assay type: in vivo; conditions: foliar, wheat cv Kanzler leaf segments, inoculated 1 day after application, assessed 7-9 days after application, read-out: control of Puccinia recondita f. sp. tritici (percent disease control compared to untreated)
Protocol: Puccinia recondita f. sp. tritici/Wheat/Leaf Disc Preventative (Brown Rust) Wheat leaf segments cultivated variety (cv) Kanzler were placed on agar in 24-well plates and sprayed with formulated test compound diluted in water at an application rate of 200 ppm. The leaf disks were inoculated with a spore suspension of the fungus 1 day after application. The inoculated leaf segments were incubated at 19° C. and 75% relative humidity under a light regime of 12/12 h (light/dark) in a climate cabinet and the activity of a compound was assessed as percent disease control compared to untreated when an appropriate level of disease damage appears in untreated check leaf segments (7-9 days after application). […].103

[10] = system: Puccinia recondita f. sp. tritici; assay: Puccinia recondita f. sp. tritici / wheat / leaf disc curative (brown rust); assay type: in vivo; conditions: foliar, wheat cv Kanzler leaf segments, applied 1 day after inoculation, assessed 6-8 days after application, read-out: control of Puccinia recondita f. sp. tritici (percent disease control compared to untreated)
Protocol: Puccinia recondita f. sp. tritici/Wheat/Leaf Disc Curative (Brown Rust): Wheat leaf segments cv Kanzler were placed on agar in 24-well plates. The leaf segments were inoculated with a spore suspension of the fungus. The plates were stored in darkness at 19° C. and 75% relative humidity. The formulated test compound diluted in water was applied at an application rate of 200 ppm 1 day after inoculation.

[11] = system: Pyrenophora teres; assay: Pyrenophora teres / barley / leaf disc preventative (net blotch); assay type: in vivo; conditions: foliar, barley cv Hasso leaf segments, inoculated two days after application, assessed 5-7 days after application, read-out: control of Pyrenophora teres (disease control compared to untreated)
[12] = system: Blumeria graminis f. sp. tritici (Erysiphe graminis f. sp. tritici); assay: Blumeria graminis f. sp. tritici (Erysiphe graminis f. sp. tritici) / wheat / leaf disc preventative (powdery mildew on wheat); assay type: in vivo; conditions: foliar, wheat cv. Kanzler leaf segments, inoculated 1 day after application, assessed 6-8 days after application, read-out: control of Blumeria graminis (percent disease control compared to untreated)

CO/N=C(\C)c1cccc(CCCO/N=C(/c2ccccn2)c2ncc(C(F)(F)F)cc2Cl)n1 [P.51]
≥ 80%: pest or weed control at 200 ppm [1] | inhibition at 200 ppm [2] | inhibition at 200 ppm [3] | inhibition at 200 ppm [4] | inhibition at 200 ppm [5] | inhibition at 200 ppm [6] | inhibition at 200 ppm [7] | inhibition at 200 ppm [8]

CCO/N=C(\C)c1cccc(CCCO/N=C(\C)c2cccc(C)n2)n1 [P.01]
≥ 80%: pest or weed control at 200 ppm [9] | pest or weed control at 200 ppm [10] | pest or weed control at 200 ppm [1] | pest or weed control at 200 ppm [11] | inhibition at 200 ppm [2] | inhibition at 200 ppm [3] | inhibition at 200 ppm [4] | inhibition at 200 ppm [5] | pest or weed control at 200 ppm [12]

CO/N=C(\C)c1cccc(CCCO/N=C(\C)c2cccc(-c3cccc(OC)c3)n2)n1 [P.14]
≥ 80%: pest or weed control at 200 ppm [9] | pest or weed control at 200 ppm [1] | pest or weed control at 200 ppm [11] | inhibition at 200 ppm [4] | inhibition at 200 ppm [5] | inhibition at 200 ppm [6]

CO/N=C(\C)c1cccc(CC(C)CO/N=C(\C)c2cccc(C)n2)n1 (stereo not shown) [P.03]
≥ 80%: pest or weed control at 200 ppm [9] | pest or weed control at 200 ppm [10] | pest or weed control at 200 ppm [1] | pest or weed control at 200 ppm [11] | inhibition at 200 ppm [2] | inhibition at 200 ppm [3] | inhibition at 200 ppm [4] | inhibition at 200 ppm [5] | inhibition at 200 ppm [7] | inhibition at 200 ppm [8] | pest or weed control at 200 ppm [12]

CCc1cccc(/C(C)=N/OCCCc2cccc(/C(C)=N/OC)n2)n1 [P.19]
≥ 80%: pest or weed control at 200 ppm [10] | pest or weed control at 200 ppm [1] | pest or weed control at 200 ppm [11] | inhibition at 200 ppm [2] | inhibition at 200 ppm [4] | inhibition at 200 ppm [5] | inhibition at 200 ppm [7]

CO/N=C(\C)c1cc(OC)cc(CCCO/N=C(\C)c2cccc(C)n2)n1 [P.103]
≥ 80%: pest or weed control at 200 ppm [9] | pest or weed control at 200 ppm [10] | pest or weed control at 200 ppm [1] | pest or weed control at 200 ppm [11] | inhibition at 200 ppm [2] | inhibition at 200 ppm [3] | inhibition at 200 ppm [4] | inhibition at 200 ppm [5] | inhibition at 200 ppm [6] | inhibition at 200 ppm [8] | pest or weed control at 200 ppm [12]

CO/N=C(\C)c1cccc(CCCO/N=C2\CCCc3c2nc2ccccc2c3Cl)n1 [P.95]
≥ 80%: pest or weed control at 200 ppm [1] | pest or weed control at 200 ppm [11] | inhibition at 200 ppm [2] | inhibition at 200 ppm [3] | inhibition at 200 ppm [4] | inhibition at 200 ppm [5] | inhibition at 200 ppm [6] | inhibition at 200 ppm [7] | inhibition at 200 ppm [8]

C#CCO/N=C(\C)c1cccc(CCCO/N=C(\C)c2cccc(C)n2)n1 [P.02]
≥ 80%: pest or weed control at 200 ppm [10] | pest or weed control at 200 ppm [1] | inhibition at 200 ppm [2] | inhibition at 200 ppm [4] | inhibition at 200 ppm [5] | inhibition at 200 ppm [6] | inhibition at 200 ppm [8]

CO/N=C(\C)c1cccc(CCCO/N=C2\CCCc3c2nc2ccccc2c3C)n1 [P.55]
≥ 80%: pest or weed control at 200 ppm [9] | pest or weed control at 200 ppm [10] | pest or weed control at 200 ppm [1] | pest or weed control at 200 ppm [11] | inhibition at 200 ppm [2] | inhibition at 200 ppm [3] | inhibition at 200 ppm [4] | inhibition at 200 ppm [5] | inhibition at 200 ppm [6] | inhibition at 200 ppm [8] | pest or weed control at 200 ppm [12]

CO/N=C(\C)c1cccc(CCCO/N=C(\C)c2cccc(-c3ccccc3OC)n2)n1 [P.08]
≥ 80%: pest or weed control at 200 ppm [9] | pest or weed control at 200 ppm [10] | pest or weed control at 200 ppm [1] | pest or weed control at 200 ppm [11] | inhibition at 200 ppm [2] | inhibition at 200 ppm [4] | inhibition at 200 ppm [5] | inhibition at 200 ppm [8] | pest or weed control at 200 ppm [12]

CC/C(=N\OC)c1cccc(CCCO/N=C(\C)c2cccc(C)n2)n1 [P.22]
≥ 80%: pest or weed control at 200 ppm [9] | pest or weed control at 200 ppm [10] | pest or weed control at 200 ppm [1] | pest or weed control at 200 ppm [11] | inhibition at 200 ppm [2] | inhibition at 200 ppm [3] | inhibition at 200 ppm [4] | inhibition at 200 ppm [5] | inhibition at 200 ppm [6] | inhibition at 200 ppm [8] | pest or weed control at 200 ppm [12]

CO/N=C(\C)c1cccc(CCCO/N=C2\CCCc3ccc(OC)nc32)n1 [P.56]
≥ 80%: pest or weed control at 200 ppm [10] | pest or weed control at 200 ppm [1] | inhibition at 200 ppm [2] | inhibition at 200 ppm [3] | inhibition at 200 ppm [4] | inhibition at 200 ppm [5] | inhibition at 200 ppm [6] | inhibition at 200 ppm [7] | inhibition at 200 ppm [8] | pest or weed control at 200 ppm [12]

CO/N=C(/c1cccc(CCCO/N=C(\C)c2cccc(C)n2)n1)C(C)C (single isomer, unassigned) [P.23A]
≥ 80%: pest or weed control at 200 ppm [11] | inhibition at 200 ppm [2] | inhibition at 200 ppm [4] | inhibition at 200 ppm [5] | inhibition at 200 ppm [6] | pest or weed control at 200 ppm [12]

CO/N=C(\C)c1cccc(CCCO/N=C2\CCCc3c2nc2ccc(Br)cc2c3C)n1 [P.84]
≥ 80%: pest or weed control at 200 ppm [1] | pest or weed control at 200 ppm [11] | inhibition at 200 ppm [2] | inhibition at 200 ppm [3] | inhibition at 200 ppm [4] | inhibition at 200 ppm [5] | inhibition at 200 ppm [6] | pest or weed control at 200 ppm [12]

C=CCO/N=C(\C)c1cccc(CCCO/N=C(\C)c2cccc(C)n2)n1 [P.09]
≥ 80%: pest or weed control at 200 ppm [9] | pest or weed control at 200 ppm [10] | pest or weed control at 200 ppm [1] | pest or weed control at 200 ppm [11] | inhibition at 200 ppm [2] | inhibition at 200 ppm [3] | inhibition at 200 ppm [4] | inhibition at 200 ppm [5] | inhibition at 200 ppm [8] | pest or weed control at 200 ppm [12]

CO/N=C(\C)c1cccc(CCCO/N=C2\CCCc3c2nc2cc(Cl)ccc2c3C)n1 [P.83]
≥ 80%: pest or weed control at 200 ppm [11] | inhibition at 200 ppm [2] | inhibition at 200 ppm [3] | inhibition at 200 ppm [4] | inhibition at 200 ppm [5] | inhibition at 200 ppm [6] | pest or weed control at 200 ppm [12]

CO/N=C(\C)c1cccc(CCCO/N=C2\CCCc3c2nc2cc(OC)ccc2c3C)n1 [P.69]
≥ 80%: pest or weed control at 200 ppm [9] | pest or weed control at 200 ppm [10] | pest or weed control at 200 ppm [1] | inhibition at 200 ppm [2] | inhibition at 200 ppm [3] | inhibition at 200 ppm [4] | inhibition at 200 ppm [5] | inhibition at 200 ppm [6] | inhibition at 200 ppm [7] | inhibition at 200 ppm [8] | pest or weed control at 200 ppm [12]
